Converted amounts (≈) assume the structure as drawn. “Also recorded” adds a separate entry of the source.
Legend:
[1] = tested on: HSV-1; experiment: Crystal violet assay, anti-viral activity against HSV-1 in Vero cells; assay type: cell-based, Herpes simplex type 1 virus
Description: A wild-type HSV-1 obtained from ESR, Upper Hutt, was cultured in Vero (African Green Monkey kidney) tissue culture cells. HSV-1 virus was added to confluent Vero cell monolayers and allowed to infect until >70% cytopathic effect was observed. The infected cultures were then frozen and thawed three times and centrifuged at 3000 rpm for 15 minutes. The supernatant was stored at −80° C. until use.
(§1) The crystal violet assay depends on the ability of adherent cell lines such as Vero to stick to the bottom of tissue culture plates. Damaged or dead cells lose their ability to adhere and are removed during a washing process. Viable cells remaining are stained with crystal violet, which is then released from the cells and measured in a spectrophotometer.
(§2) Vero cells were seeded at 3×10^5 cells/ml overnight at 37° C. in 96-well tissue culture plates. When cells had reached confluency, 50 μl of the growth media was removed and replaced with 25 μl of virus and 25 μl of test product. Controls were the same as those used in the xCelligence assay. The assay was terminated after 96 hours which is the length of time taken to see CPE in the control wells.

[2] = tested on: HSV-1; experiment: Crystal violet assay, anti-viral activity against HSV-1 in HaCaT cells; assay type: cell-based, Herpes simplex type 1 virus
Description: The crystal violet assay depends on the ability of adherent cell lines such as Vero to stick to the bottom of tissue culture plates. Damaged or dead cells lose their ability to adhere and are removed during a washing process. Viable cells remaining are stained with crystal violet, which is then released from the cells and measured in a spectrophotometer. Vero cells were seeded at 3×10^5 cells/ml overnight at 37° C. in 96-well tissue culture plates. When cells had reached confluency, 50 μl of the growth media was removed and replaced with 25 μl of virus and 25 μl of test product. Controls were the same as those used in the xCelligence assay. The assay was terminated after 96 hours which is the length of time taken to see CPE in the control wells. In the first test (results shown in FIGS. 2A and B), the HSV-1 anti-viral activity of pure polygodial was assessed in comparison to Acyclovir in both Vero cells (FIG. 2A) and HaCaT cells (FIG. 2B).

[3] = tested on: Vero cells and HaCaT cells; experiment: Cytotoxicity to the cells used in the in vitro anti-viral testing (crystal violet assay); assay type: cell-based, African Green Monkey; settings: at the concentrations tested in the anti-viral assay
Description: as §1, §2
In this test, it was confirmed that polygodial is not cytotoxic at the concentrations tested because where strong anti-viral activity is present, the cells are alive and uninfected by the virus.

[4] = tested on: cells; settings: literature statement; cited from earlier work
[5] = 4 μl/ml Acyclovir, virus only control infection rate about 75%

## Nc1nc2c(ncn2COCCO)c(=O)[nH]1 [Acyclovir, reference compound]
[1]; 4 μl/ml Acyclovir, Vero and HaCaT not distinguished, virus only control infection rate about 80%
  uninfected cells, Acyclovir control, first test (FIGS. 2A and B): 80%
[1]; [5]
  uninfected Vero cells, Acyclovir control, second test (FIG. 3A): 60%
[2]; [5]
  uninfected HaCaT cells, Acyclovir control, second test (FIG. 3B): 75%

## CC1(C)CCC[C@]2(C)[C@@H](C=O)C(C=O)=CC[C@@H]12 [polygodial]
[1]; Human alphaherpesvirus 1, calculated, HSV-1, cell line not distinguished (Vero and HaCaT)
  MIC: 600 to 1200 µg/mL (≈ 2.56 to 5.12 mM)
[1]; Vero cells
  concentration at which anti-viral effect was comparative to 4 μl/ml Acyclovir: 0.15 mg/mL
[2]; HaCaT cells
  concentration at which anti-viral effect was comparative to 4 μl/ml Acyclovir: 0.3125 mg/mL
[3]
  cytotoxicity: not cytotoxic; also recorded: low cytotoxicity

## CC1(C)CCC[C@@]2(C)[C@H]1CC=C(C=O)[C@]2(O)C=O [warburganal]
[4]
  cytotoxicity: particularly cytotoxic

Reference: patent US10045952B2, “Anti-Viral Compound and Composition” (Forest Herbs Research Limited, priority 2013, dated 2018)
